Data as given in BigSolDB 2.1.

NC(=O)N1c2ccccc2C=Cc2ccccc21
Conditions	solubility (mole fraction)
in chloroform, 278.15 K	0.0577
in chloroform, 288.65 K	0.0627
in chloroform, 297.55 K	0.0679
in chloroform, 307.15 K	0.0756
in chloroform, 318.95 K	0.086
in chloroform, 327.95 K	0.0968
in cyclohexylamine, 287.25 K	0.0149
in cyclohexylamine, 302.35 K	0.0193
in cyclohexylamine, 317.65 K	0.0259
in cyclohexylamine, 332.85 K	0.0353
in cyclohexylamine, 348.15 K	0.05
in cyclohexylamine, 366.15 K	0.0657
in ethyl acetate, 281.35 K	0.00272
in ethyl acetate, 298.55 K	0.00436
in ethyl acetate, 306.55 K	0.00548
in ethyl acetate, 314.05 K	0.0068
in ethyl acetate, 326.85 K	0.00959
in ethyl acetate, 346.65 K	0.0142
in ethylene glycol, 279.15 K	0.00098
in ethylene glycol, 288.55 K	0.00243
in ethylene glycol, 316.85 K	0.00861
in ethylene glycol, 335.25 K	0.0189
in ethylene glycol, 346.55 K	0.0294
in ethylene glycol, 356.95 K	0.0429
in methyl acetate, 281.95 K	0.00521
in methyl acetate, 292.35 K	0.00665
in methyl acetate, 301.85 K	0.00843
in methyl acetate, 311.55 K	0.0109
